# Biological target: T1, GCase (Homo sapiens, UniProt P04062)
# T1 construct: endogenous in cells; host or cells: HeLa cells
# T1 sequence (P04062 40-536): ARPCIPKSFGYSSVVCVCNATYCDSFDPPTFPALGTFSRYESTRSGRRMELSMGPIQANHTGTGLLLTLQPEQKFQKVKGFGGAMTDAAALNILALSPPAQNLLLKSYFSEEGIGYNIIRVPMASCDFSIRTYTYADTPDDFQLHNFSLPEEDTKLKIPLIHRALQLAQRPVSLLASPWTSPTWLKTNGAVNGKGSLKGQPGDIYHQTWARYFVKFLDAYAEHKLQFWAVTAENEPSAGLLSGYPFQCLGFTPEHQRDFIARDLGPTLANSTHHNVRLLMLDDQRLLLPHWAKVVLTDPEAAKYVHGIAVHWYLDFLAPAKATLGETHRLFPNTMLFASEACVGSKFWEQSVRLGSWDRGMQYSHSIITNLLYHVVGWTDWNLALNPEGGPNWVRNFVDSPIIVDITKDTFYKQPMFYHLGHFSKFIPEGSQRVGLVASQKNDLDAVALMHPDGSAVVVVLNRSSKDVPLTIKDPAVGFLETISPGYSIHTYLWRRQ
# Assay: activation of GCase in a live cell PFB assay in HELA cells
# Type: cell-based
# Settings: activation of GCase, EC50 ranges
# Method: Exemplary compounds were evaluated for activation of GCase in a live cell PFB assay in HELA cells (essentially as described in Ysselstein et al., “LRRK2 kinase activity regulates lysosomal glucocerebrosidase in neurons derived from Parkinson's disease patients” Nature Communications (2019) 10:5570). […] EC50 ranges: A: <10 μM; B: >10-50 μM; C: >50-100 μM; D: >100 μM.
row,SMILES,EC50
1,"FC(F)Cn1ncc2ncc(N3CCCC4(CC(Oc5cccnc5C(F)(F)F)C4)C3)nc21 (stereo not drawn) [Compound 4, 6-[1-(2,2-Difluoroethyl)-1H-pyrazolo[3,4-b]pyrazin-6-yl]-2-{[2-(trifluoromethyl)pyridin-3-yl]oxy}-6-azaspiro[3.5]nonane]",< 10 µM
2,"FC(F)Cn1ncc2ncc(N3CCCC4(CCN(c5cccnc5C(F)(F)F)C4)C3)nc21 (stereo not drawn) [Compound 5, 7-[1-(2,2-difluoroethyl)-1H-pyrazolo[3,4-b]pyrazin-6-yl]-2-[2-(trifluoromethyl)pyridin-3-yl]-2,7-diazaspiro[4.5]decane]",< 10 µM
3,"FC(F)Cn1ncc2ncc(N3CCC4(CCN(c5cc(C(F)(F)F)ccn5)C4)CC3)nc21 [Compound 6, 8-[1-(2,2-difluoroethyl)-1H-pyrazolo[3,4-b]pyrazin-6-yl]-2-[4-(trifluoromethyl)pyridin-2-yl]-2,8-diazaspiro[4.5]decane]",< 10 µM
4,"FC(F)Cn1ncc2ncc(N3CCC4(CCCN(c5cccnc5C(F)(F)F)C4)C3)nc21 (stereo not drawn) [Compound 7, 2-[1-(2,2-difluoroethyl)-1H-pyrazolo[3,4-b]pyrazin-6-yl]-7-[2-(trifluoromethyl)pyridin-3-yl]-2,7-diazaspiro[4.5]decane]",< 10 µM
5,"FC(F)Cn1ncc2ncc(N3CC4(CCCN(c5ccnc(C(F)(F)F)c5)C4)C3)nc21 [Compound 8, 2-[1-(2,2-difluoroethyl)-1H-pyrazolo[3,4-b]pyrazin-6-yl]-6-[2-(trifluoromethyl)pyridin-4-yl]-2,6-diazaspiro[3.5]nonane]",< 10 µM
6,"FC(F)Cn1ncc2ncc(N3CC4(CCCN(c5cccnc5C(F)(F)F)C4)C3)nc21 [Compound 9, 2-[1-(2,2-difluoroethyl)-1H-pyrazolo[3,4-b]pyrazin-6-yl]-6-[2-(trifluoromethyl)pyridin-3-yl]-2,6-diazaspiro[3.5]nonane]",< 10 µM
7,"FC(F)Cn1ncc2ncc(N3CCCC4(CC(Oc5cnccc5C(F)(F)F)C4)C3)nc21 (stereo not drawn) [Compound 10, 6-[1-(2,2-difluoroethyl)-1H-pyrazolo[3,4-b]pyrazin-6-yl]-2-{[4-(trifluoromethyl)pyridin-3-yl]oxy}-6-azaspiro[3.5]nonane]",< 10 µM
8,"FC(F)(F)Cn1ncc2ncc(N3CCCC4(CC(Oc5cnccc5C(F)(F)F)C4)C3)nc21 (stereo not drawn) [Compound 11, 6-[1-(2,2,2-trifluoroethyl)-1H-pyrazolo[3,4-b]pyrazin-6-yl]-2-{[4-(trifluoromethyl)pyridin-3-yl]oxy}-6-azaspiro[3.5]nonane]",< 10 µM
9,"FC(F)Cn1ncc2ncc(N3CCCC4(CN(c5ccnc(C(F)(F)F)c5)C4)C3)nc21 [Compound 12, 6-[1-(2,2-difluoroethyl)-1H-pyrazolo[3,4-b]pyrazin-6-yl]-2-[2-(trifluoromethyl)pyridin-4-yl]-2,6-diazaspiro[3.5]nonane]",10 to 50 µM
10,"FC(F)Cn1ncc2ncc(N3CCCC4(CC(Oc5ccnc(C(F)(F)F)c5)C4)C3)nc21 (stereo not drawn) [Compound 13, 6-[1-(2,2-difluoroethyl)-1H-pyrazolo[3,4-b]pyrazin-6-yl]-2-{[2-(trifluoromethyl)pyridin-4-yl]oxy}-6-azaspiro[3.5]nonane]",10 to 50 µM
11,"FC(F)Cn1ncc2ncc(N3CC4(CCCN(c5ccc(C(F)(F)F)cn5)C4)C3)nc21 [Compound 14, 2-[1-(2,2-difluoroethyl)-1H-pyrazolo[3,4-b]pyrazin-6-yl]-6-[5-(trifluoromethyl)pyridin-2-yl]-2,6-diazaspiro[3.5]nonane]",10 to 50 µM
12,"FC(F)Cn1ncc2ncc(N3CCCC4(CN(c5cncc(C(F)(F)F)c5)C4)C3)nc21 [Compound 15, 6-[1-(2,2-difluoroethyl)-1H-pyrazolo[3,4-b]pyrazin-6-yl]-2-[5-(trifluoromethyl)pyridin-3-yl]-2,6-diazaspiro[3.5]nonane]",10 to 50 µM
13,"FC(F)Cn1ncc2ncc(N3CCC4(CCN(c5cc(C(F)(F)F)ccn5)CC4)C3)nc21 [Compound 16, 2-[1-(2,2-difluoroethyl)-1H-pyrazolo[3,4-b]pyrazin-6-yl]-8-[4-(trifluoromethyl)pyridin-2-yl]-2,8-diazaspiro[4.5]decane]",10 to 50 µM
14,"FC(F)Cn1ncc2ncc(N3CCCC4(C3)CN(c3cnccc3C(F)(F)F)C4)nc21 [Compound 17, 6-[1-(2,2-difluoroethyl)-1H-pyrazolo[3,4-b]pyrazin-6-yl]-2-[4-(trifluoromethyl)pyridin-3-yl]-2,6-diazaspiro[3.5]nonane]",10 to 50 µM
15,"FC(F)Cn1ncc2ncc(N3CCCC4(C3)CN(c3ncccc3C(F)(F)F)C4)nc21 [Compound 18, 6-[1-(2,2-difluoroethyl)-1H-pyrazolo[3,4-b]pyrazin-6-yl]-2-[3-(trifluoromethyl)pyridine-2-yl]-2,6-diazaspiro[3.5]nonane]",10 to 50 µM
16,"FC(F)Cn1ncc2ncc(N3CCCC4(CN(c5ccccc5)C4)C3)nc21 [Compound 19, 6-[1-(2,2-difluoroethyl)-1H-pyrazolo[3,4-b]pyrazin-6-yl]-2-phenyl-2,6-diazaspiro[3.5]nonane]",10 to 50 µM

# Continued, values first:
row,EC50,SMILES
1,10 to 50 µM,"FC(F)Cn1ncc2ncc(N3CC4(CCCN(c5ccc(C(F)(F)F)nc5)C4)C3)nc21 [Compound 20, 2-[1-(2,2-difluoroethyl)-1H-pyrazolo[3,4-b]pyrazin-6-yl]-6-[6-(trifluoromethyl)pyridin-3-yl]-2,6-diazaspiro[3.5]nonane]"
2,10 to 50 µM,"FC(F)Cn1ncc2ncc(N3CC4(CCCN(c5cc(C(F)(F)F)ccn5)C4)C3)nc21 [Compound 21, 2-[1-(2,2-difluoroethyl)-1H-pyrazolo[3,4-b]pyrazin-6-yl]-6-[4-(trifluoromethyl)pyridin-2-yl]-2,6-diazaspiro[3.5]nonane]"
3,10 to 50 µM,"FC(F)Cn1ncc2ncc(N3CCCC4(CC(Oc5ccc(C(F)(F)F)nc5)C4)C3)nc21 (stereo not drawn) [Compound 22, 6-[1-(2,2-difluoroethyl)-1H-pyrazolo[3,4-b]pyrazin-6-yl]-2-{[6-(trifluoromethyl)pyridin-3-yl]oxy}-6-azaspiro[3.5]nonane]"
4,10 to 50 µM,"FC(F)Cn1ncc2ncc(N3CCCC4(CN(c5cccc(C(F)(F)F)n5)C4)C3)nc21 [Compound 23, 6-[1-(2,2-difluoroethyl)-1H-pyrazolo[3,4-b]pyrazin-6-yl]-2-[6-(trifluoromethyl)pyridin-2-yl]-2,6-diazaspiro[3.5]nonane]"
5,10 to 50 µM,"Fc1ccc(F)c(OC2CC3(CCCN(c4cnc5cnn(CC(F)F)c5n4)C3)C2)c1 (stereo not drawn) [Compound 24, 6-[1-(2,2-difluoroethyl)-1H-pyrazolo[3,4-b]pyrazin-6-yl]-2-(2,5-difluorophenoxy)-6-azaspiro[3.5]nonane]"
6,10 to 50 µM,"FC(F)Cn1ncc2ncc(N3CC4(CCCN(c5cccc(C(F)(F)F)n5)C4)C3)nc21 [Compound 25, 2-[1-(2,2-difluoroethyl)-1H-pyrazolo[3,4-b]pyrazin-6-yl]-6-[6-(trifluoromethyl)pyridin-2-yl]-2,6-diazaspiro[3.5]nonane]"
7,10 to 50 µM,"FC(F)Cn1ncc2ncc(N3CCCC4(C3)CN(c3cccnc3C(F)(F)F)C4)nc21 [Compound 26, 6-[1-(2,2-difluoroethyl)-1H-pyrazolo[3,4-b]pyrazin-6-yl]-2-[2-(trifluoromethyl)pyridin-3-yl]-2,6-diazaspiro[3.5]nonane]"
8,10 to 50 µM,"FC(F)Cn1ncc2ncc(N3CCCC4(CC(Oc5cccc(C(F)(F)F)n5)C4)C3)nc21 (stereo not drawn) [Compound 27, 6-[1-(2,2-difluoroethyl)-1H-pyrazolo[3,4-b]pyrazin-6-yl]-2-{[6-(trifluoromethyl)pyridin-2-yl]oxy}-6-azaspiro[3.5]nonane]"
9,10 to 50 µM,"FC(F)Cn1ncc2ncc(N3CCCC4(CC(Oc5ccc(C(F)(F)F)cn5)C4)C3)nc21 (stereo not drawn) [Compound 28, 6-[1-(2,2-difluoroethyl)-1H-pyrazolo[3,4-b]pyrazin-6-yl]-2-{[5-(trifluoromethyl)pyridin-2-yl]oxy}-6-azaspiro[3.5]nonane]"
10,10 to 50 µM,"FC(F)Cn1ncc2ncc(N3CCCC4(CC(Oc5cc(C(F)(F)F)ccn5)C4)C3)nc21 (stereo not drawn) [Compound 29, 6-[1-(2,2-difluoroethyl)-1H-pyrazolo[3,4-b]pyrazin-6-yl]-2-{[4-(trifluoromethyl)pyridin-2-yl]oxy}-6-azaspiro[3.5]nonane]"
11,10 to 50 µM,"Fc1ccc(F)c(OC2CC3(CCCN(c4cnc5cnn(CC(F)(F)F)c5n4)C3)C2)c1 (stereo not drawn) [Compound 30, 2-(2,5-difluorophenoxy)-6-[1-(2,2,2-trifluoroethyl)-1H-pyrazolo[3,4-b]pyrazin-6-yl]-6-azaspiro[3.5]nonane]"
12,10 to 50 µM,"Fc1cc(F)cc(OC2CC3(CCCN(c4cnc5cnn(CC(F)F)c5n4)C3)C2)c1 (stereo not drawn) [Compound 31, 6-[1-(2,2-difluoroethyl)-1H-pyrazolo[3,4-b]pyrazin-6-yl]-2-(3,5-difluorophenoxy)-6-azaspiro[3.5]nonane]"
13,10 to 50 µM,"FC(F)Cn1ncc2ncc(N3CCCC4(CC(Oc5ncccc5C(F)(F)F)C4)C3)nc21 (stereo not drawn) [Compound 32, 6-[1-(2,2-difluoroethyl)-1H-pyrazolo[3,4-b]pyrazin-6-yl]-2-{[3-(trifluoromethyl)pyridin-2-yl]oxy}-6-azaspiro[3.5]nonane]"
14,10 to 50 µM,"Fc1cc(F)cc(OC2CC3(CCCN(c4cnc5cnn(CC(F)(F)F)c5n4)C3)C2)c1 (stereo not drawn) [Compound 33, 2-(3,5-difluorophenoxy)-6-[1-(2,2,2-trifluoroethyl)-1H-pyrazolo[3,4-b]pyrazin-6-yl]-6-azaspiro[3.5]nonane]"

# — US20250034170A1, “SMALL MOLECULE MODULATORS OF GLUCOCEREBROSIDASE ACTIVITY AND USES THEREOF” (Vanqua Bio, Inc., priority 2021, published 2025)
